According to patent publication US20240343666A1, “PERINAPHTHENONE COMPOUND AND USE THEREOF” (INSTITUTE OF MEDICINAL BIOTECHNOLOGY, CHINESE ACADEMY OF …, priority 2021, published 2024):

Biological target: TRIM25 (Homo sapiens, UniProt Q14258)
Assay type: cell-based
Design: endogenous in cells

TRIM25, sequence (Q14258 whole entry, species assumed): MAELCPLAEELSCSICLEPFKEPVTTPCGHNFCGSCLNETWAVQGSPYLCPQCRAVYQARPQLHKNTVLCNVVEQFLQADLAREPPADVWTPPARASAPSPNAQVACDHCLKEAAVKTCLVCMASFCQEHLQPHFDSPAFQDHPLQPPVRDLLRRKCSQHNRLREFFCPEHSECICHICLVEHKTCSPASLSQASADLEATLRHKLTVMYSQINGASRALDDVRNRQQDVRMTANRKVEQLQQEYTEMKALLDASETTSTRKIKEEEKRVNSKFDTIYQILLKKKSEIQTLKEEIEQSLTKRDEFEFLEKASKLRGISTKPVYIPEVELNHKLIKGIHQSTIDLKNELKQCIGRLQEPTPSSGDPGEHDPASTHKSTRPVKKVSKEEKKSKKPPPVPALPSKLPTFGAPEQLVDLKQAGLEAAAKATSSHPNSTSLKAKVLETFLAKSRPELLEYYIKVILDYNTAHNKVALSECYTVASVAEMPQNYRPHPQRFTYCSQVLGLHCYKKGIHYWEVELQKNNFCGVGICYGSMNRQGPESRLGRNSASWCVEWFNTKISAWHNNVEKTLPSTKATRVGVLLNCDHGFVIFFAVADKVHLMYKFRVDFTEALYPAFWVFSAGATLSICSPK

How did the “Anti-influenza activity after TRIM25 knockdown” value turn out when C/C(=C\CC/C(C)=C/C[C@]1(O)C(=O)c2c(O)cc(C)c3c(O)c(C)c(O)c(c23)C1=O)CC/C=C(\CO)CC[C@@H](O)C(C)(C)O [Compound C1] was run?
The value was “significantly affected”.

And the “Anti-influenza activity on overexpression of TRIM25 in TRIM25 knockout cell line” value?
Its value is “restore the anti-influenza activity of compound C1 to a normal cell level”.
